# Source: US5164411A, “Pyrethroid compositions” (priority 1991, dated 1992)
# How the values were obtained:
# [1] = test system: cabbage looper (Trichoplusia ni); assay: Foliar evaluation, cabbage looper (CL); format: in vivo; conditions: for LC50: Trichoplusia ni, foliar, pinto beans, mortality at 48 hours
# Protocol: (§1) Cypermethrin and sigma-cypermethrin were tested by foliar application at various concentrations in aqueous solutions containing 9.75% acetone and 0.25% octylphenoxypolyethoxyethanol. Insect species utilized included the cabbage looper (Trichoplusia ni), southern armyworm (Spodoptera eridania), Mexican bean beetle (Epilachna varivestis), tobacco budworm (Heliothis virescens), and corn earworm (Heliothis zea).
# (§2) For all insects, pinto beans (Phaseolus vulgaris) plants were treated with the test solutions. The test solutions were applied with a sprayer to the upper and lower surfaces of the plant leaves to runoff. The plants were then allowed to dry and were severed at the base of the stem before being placed in cups. Ten second instar individuals of the appropriate insect species, except the tobacco budworm and corn earworm, were placed in each cup and the cup covered. Tests with the tobacco budworm and corn earworm used four replicates with each replicate containing five second instar insects. In all tests, mortality was read 48 hours later. The sigma-cypermethrin used in the foliar evaluations was the product of Example 2.
# [2] = test system: tobacco budworm strain resistant to pyrethroids; assay: Foliar evaluation, pyrethroid-resistant tobacco budworm (TBW-R); format: in vivo, Heliothis virescens; conditions: for LC50: Heliothis virescens, foliar, pinto beans, mortality at 48 hours
# Protocol: as §1, §2
# [3] = test system: corn earworm (Heliothis zea); assay: Foliar evaluation, corn earworm (CEW); format: in vivo; conditions: for LC50: Helicoverpa zea, foliar, pinto beans, mortality at 48 hours
# Protocol: as §1, §2
# [4] = test system: alfalfa weevil (Hypera postica); assay: Field trials, control of alfalfa weevil; format: in vivo
# Protocol: Field trials were conducted in Louisiana, North Carolina, Texas, Kentucky, Tennessee, and Illinois to evaluate the control of alfalfa weevil (Hypera postica). Small plot trials were used in a randomized block design with four replications per treatment. Applications were made with CO2 backpack sprayers. Results were obtained at 3, 7, and 14 days after treatment (DAT) and were converted to percent control based on the untreated check.
# Teratology = format: in vivo, Sprague-Dawley rat; conditions: rat, po; gavage in corn oil, once daily, gestation days 6 through 15; read-out: NOEL
# Protocol: (§3) These tests were conducted in compliance with EPA guideline 83-3 for the purpose of determining the effects of the test materials on pregnancy and in utero development. The test materials were administered via gavage in corn oil once daily to female Sprague-Dawley rats on days 6 through 15 of presumed gestation. There were 25 animals per dose group. Dosages of 0, 17.5, 37.5, and 75 mg/kg for cypermethrin and 0, 5, 12.5, 25, and 35 mg/kg for sigma-cypermethrin were administered. The cypermethrin isomer content (weight %) of the sigma-cypermethrin technical product used in this study was total isomers--89.1%, S-isomers--82%, cis/trans ratio--51/49. The control animals (0 mg/kg) received corn oil during the treatment period. All dosages were adjusted daily on the basis of body weights.
# (§4) Daily observations of the rats were made during the dosage and postdosage periods. On gestation day 20 to 21 the rats were sacrificed for examination of their uterine contents, including the number of live and dead fetuses and the number of resorptions. Fetuses were subsequently examined for malformations.
# [5] = test system: female Sprague-Dawley rats; assay: Teratology; format: in vivo, Sprague-Dawley rat; conditions: for embryotoxic or teratogenic effect: at any dose
# Protocol: as §3, §4
# [6] = Ninety-six-hour flow-through acute toxicity, rainbow trout; format: in vivo, Oncorhynchus mykiss; conditions: 96 h flow-through, well water
# Protocol: Ninety-six-hour flow-through acute toxicity studies of both cypermethrin and sigma-cypermethrin were conducted in the rainbow trout (Oncorhynchus mykiss) and in the sheepshead minnow (Cyprinodon variagatus) to determine the median-lethal-concentration (LC50) resulting from continuous exposure. For the rainbow trout the exposure medium was well water; for the sheepshead minnow, filtered seawater. Each group of 20 fish (10 per replicate aquarium) was exposed either to one of five concentrations of pyrethroid delivered in a diluter system in dimethylformamide (DMF), to 30 μL/L DMF in the exposure medium (solvent control), or to the exposure medium alone (control). Observations for mortality, morbidity, and other overt signs of toxicity were determined at prescribed intervals. Concentrations of the test materials were measured at the beginning and end of the exposure using a validated HPLC method. The cypermethrin isomer content (weight %) of the sigma-cypermethrin technical product used in this study was total isomers--88.2%, S-isomers--82%, cis/trans ratio--53/47.
smiles,measurement,setting,value
"CC1(C)C(C=C(Cl)Cl)C1C(=O)O[C@H](C#N)c1cccc(Oc2ccccc2)c1 (mixture of isomers) [sigma-cypermethrin, (S)(cyano)(3-phenoxyphenyl)methyl cis/trans-3-(2,2-dichloroethenyl)-2,2-dimethylcyclopropanecarboxylate]",LC50,[1],1.4 µg/mL
same,Relative Potency,"[1]; vs cypermethrin, CL",1.6
same,LC50,[2],43 µg/mL
same,Relative Potency,"[2]; vs cypermethrin, TBW-R",2.1
same,LC50,[3],3.9 µg/mL
same,Relative Potency,"[3]; vs cypermethrin, CEW",1.9
same,% Alfalfa Weevil Control,"[4]; Year 1, 0.022 lb ai/A, 3 DAT, average of 4 trials",96%
same,% Alfalfa Weevil Control,"[4]; Year 1, 0.022 lb ai/A, 7 DAT, average of 4 trials",94%
same,% Alfalfa Weevil Control,"[4]; Year 1, 0.022 lb ai/A, 14 DAT, average of 4 trials",96%
same,% Alfalfa Weevil Control,"[4]; Year 2, 0.01 lb ai/A, 3 DAT, average of 6 trials",93%
same,% Alfalfa Weevil Control,"[4]; Year 2, 0.01 lb ai/A, 7 DAT, average of 6 trials",93%
same,% Alfalfa Weevil Control,"[4]; Year 2, 0.01 lb ai/A, 14 DAT, average of 6 trials",85%
same,% Alfalfa Weevil Control,"[4]; Year 2, 0.015 lb ai/A, 3 DAT, average of 6 trials",94%
same,% Alfalfa Weevil Control,"[4]; Year 2, 0.015 lb ai/A, 7 DAT, average of 6 trials",97%
same,% Alfalfa Weevil Control,"[4]; Year 2, 0.015 lb ai/A, 14 DAT, average of 6 trials",94%
same,% Alfalfa Weevil Control,"[4]; Year 2, 0.022 lb ai/A, 3 DAT, average of 6 trials",94%
same,% Alfalfa Weevil Control,"[4]; Year 2, 0.022 lb ai/A, 7 DAT, average of 6 trials",96%
same,% Alfalfa Weevil Control,"[4]; Year 2, 0.022 lb ai/A, 14 DAT, average of 6 trials",94%
same,NOAEL,Teratology,12.5 mg/kg
same,embryotoxic or teratogenic effect,[5],no embryotoxic or teratogenic effect
same,amount required to show an effect on rats relative to that expected from effect on insects,[5]; teratology,1.4 times
same,LC50 at 96 h,[6],0.00069 µg/mL
"CC1(C)C(C=C(Cl)Cl)C1C(=O)OC(C#N)c1cccc(Oc2ccccc2)c1 (stereo not shown) [cypermethrin, (cyano)(3-phenoxyphenyl)methyl 3-(2,2-dichloroethenyl)-2,2-dimethylcyclopropanecarboxylate, reference compound]",LC50,[1],2.3 µg/mL
same,LC50,[2],92 µg/mL
same,LC50,[3],7.3 µg/mL
same,% Alfalfa Weevil Control,"[4]; Year 2, 0.04 lb ai/A, 3 DAT, average of 6 trials",94%
same,% Alfalfa Weevil Control,"[4]; Year 2, 0.04 lb ai/A, 7 DAT, average of 6 trials",96%
same,% Alfalfa Weevil Control,"[4]; Year 2, 0.04 lb ai/A, 14 DAT, average of 6 trials",90%
same,NOAEL,Teratology,17.5 mg/kg
same,embryotoxic or teratogenic effect,[5],no embryotoxic or teratogenic effect
same,LC50 at 96 h,[6],0.000897 µg/mL
